Entries after “also recorded” stand apart in the source; their conditions may differ.
Assays:
[1] = target: MAPK14 p38 (Homo sapiens, UniProt Q16539); details: cited from earlier work
[2] = target: JNK1 (Homo sapiens, UniProt P45983); details: cited from earlier work
[3] = target: JNK3 (Homo sapiens, UniProt P53779); details: cited from earlier work
[4] = target: T1, PKCepsilon (Homo sapiens, UniProt Q02156); details: PKCepsilon; cited from earlier work
T1 sequence (Q02156 1-737): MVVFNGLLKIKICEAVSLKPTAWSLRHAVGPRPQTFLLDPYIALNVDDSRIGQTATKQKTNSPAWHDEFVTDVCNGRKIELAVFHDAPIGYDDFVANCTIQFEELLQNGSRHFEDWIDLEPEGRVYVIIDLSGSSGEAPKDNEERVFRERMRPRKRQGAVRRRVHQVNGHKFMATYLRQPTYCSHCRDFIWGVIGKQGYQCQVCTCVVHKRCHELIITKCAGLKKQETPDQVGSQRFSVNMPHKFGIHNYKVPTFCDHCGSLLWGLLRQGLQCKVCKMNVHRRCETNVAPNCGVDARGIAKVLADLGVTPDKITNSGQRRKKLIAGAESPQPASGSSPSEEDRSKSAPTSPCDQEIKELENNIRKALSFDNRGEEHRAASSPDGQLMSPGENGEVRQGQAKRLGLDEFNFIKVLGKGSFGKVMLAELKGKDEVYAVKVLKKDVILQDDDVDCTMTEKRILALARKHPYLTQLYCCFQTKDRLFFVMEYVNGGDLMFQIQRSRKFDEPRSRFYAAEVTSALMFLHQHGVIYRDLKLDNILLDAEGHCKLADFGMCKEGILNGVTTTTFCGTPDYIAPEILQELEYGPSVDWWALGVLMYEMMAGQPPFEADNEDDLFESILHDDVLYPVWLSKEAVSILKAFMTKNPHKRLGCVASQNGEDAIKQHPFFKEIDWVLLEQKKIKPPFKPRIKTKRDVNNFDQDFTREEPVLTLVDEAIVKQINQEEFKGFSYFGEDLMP

[5] = test system: Plasmodium falciparum; test: P. falciparum growth in vitro (flow cytometry); type: cell-based; details: 1 μM or 10 μM, 48 h, relative to vehicle control
[6] = test system: anti-parasite genes; test: Midgut expression of anti-parasite/immune genes in A. stephensi (quantitative PCR); type: in vivo, Anopheles stephensi; details: fed killed lysate of P. falciparum with BIRB 796; 6 h post-feeding
[7] = test system: Anopheles stephensi p38 MAPK; test: MK2 phosphorylation in LPS-stimulated ASE cells (western blot); type: cell-based; details: ASE cells pre-incubated with 10 μM inhibitor, 2 h later 1 μg/ml LPS
[8] = test system: Plasmodium falciparum; test: P. falciparum development in A. stephensi after supplemented bloodmeal (oocysts); type: in vivo; details: 10 μM in bloodmeal
Description: Midguts were dissected and oocysts were counted at 10 days following infection. Dots in FIG. 3A and FIG. 3C represent oocyst numbers in one midgut, while percentage positive midguts or percentage of midguts with at least one oocyst are represented as means in FIG. 3B and FIG. 3D. Mean oocysts per midgut (lines, numbers on graph) were analyzed by ANOVA (alpha=0.05) for overall significance and by Student-Neuman-Keuls for pairwise comparisons using Graphpad Prism version 4.0 (San Diego, Calif.). Prevalences of mosquito infection (indicated on graph) were analyzed by chi-square (alpha=0.05).

[9] = test system: mosquito p38 MAPK
[10] = test system: A. stephensi; test: Mosquito lifespan, A. stephensi; type: in vivo, Anopheles stephensi; details: 1 μM or 10 μM daily in water or once weekly via bloodmeal
[11] = test system: A. freeborni; test: Mosquito lifespan, A. freeborni; type: in vivo; details: 1 μM or 10 μM daily in water or once weekly via bloodmeal

JNK3, sequence (P53779 whole entry, species assumed): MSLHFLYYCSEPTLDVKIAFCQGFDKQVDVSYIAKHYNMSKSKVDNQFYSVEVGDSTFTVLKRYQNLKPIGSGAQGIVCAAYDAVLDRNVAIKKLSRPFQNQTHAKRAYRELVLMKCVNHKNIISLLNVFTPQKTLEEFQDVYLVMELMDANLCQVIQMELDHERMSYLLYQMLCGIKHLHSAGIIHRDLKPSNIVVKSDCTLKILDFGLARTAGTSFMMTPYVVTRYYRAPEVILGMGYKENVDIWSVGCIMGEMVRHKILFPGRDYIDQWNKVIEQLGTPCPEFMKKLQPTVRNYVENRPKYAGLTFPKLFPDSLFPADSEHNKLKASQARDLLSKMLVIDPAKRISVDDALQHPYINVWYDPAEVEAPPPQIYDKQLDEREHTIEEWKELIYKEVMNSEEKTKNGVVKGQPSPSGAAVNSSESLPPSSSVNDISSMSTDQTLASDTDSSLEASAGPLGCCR
MAPK14 p38, sequence (Q16539 whole entry): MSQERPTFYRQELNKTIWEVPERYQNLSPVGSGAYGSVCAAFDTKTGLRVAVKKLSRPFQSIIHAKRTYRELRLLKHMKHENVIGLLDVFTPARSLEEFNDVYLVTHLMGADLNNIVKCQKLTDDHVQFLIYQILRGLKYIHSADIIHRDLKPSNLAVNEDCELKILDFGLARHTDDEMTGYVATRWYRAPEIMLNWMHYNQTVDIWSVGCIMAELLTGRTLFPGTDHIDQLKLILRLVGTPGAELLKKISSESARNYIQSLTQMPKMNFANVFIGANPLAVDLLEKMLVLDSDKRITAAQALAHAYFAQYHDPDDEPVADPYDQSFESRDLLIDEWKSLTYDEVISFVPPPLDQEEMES
JNK1, sequence (P45983 whole entry, species assumed): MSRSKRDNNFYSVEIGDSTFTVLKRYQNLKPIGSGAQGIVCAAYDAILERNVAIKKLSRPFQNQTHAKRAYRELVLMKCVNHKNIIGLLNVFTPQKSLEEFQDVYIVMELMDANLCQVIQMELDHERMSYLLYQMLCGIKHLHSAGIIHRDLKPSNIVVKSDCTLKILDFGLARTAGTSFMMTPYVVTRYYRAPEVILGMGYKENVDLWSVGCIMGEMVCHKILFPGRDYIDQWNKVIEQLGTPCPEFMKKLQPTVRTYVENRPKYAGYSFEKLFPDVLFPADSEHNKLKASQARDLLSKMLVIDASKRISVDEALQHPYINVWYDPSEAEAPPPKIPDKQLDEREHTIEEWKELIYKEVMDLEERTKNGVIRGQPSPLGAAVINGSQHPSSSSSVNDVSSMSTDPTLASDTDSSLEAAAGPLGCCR

Cc1ccc(C(=O)Nc2cccc(C(F)(F)F)c2)cc1-c1ccc2nc(N)ncc2c1 [2ofv]
IC50 [1]: 6 nM

Cc1n[nH]c2ccc(-c3cncc(OC[C@@H](N)Cc4c[nH]c5ccccc45)c3)cc12 [A 443654]
IC50 [2]: > 900 nM | IC50 [3]: > 900 nM

Cc1cccc(-c2nn(C(=S)Nc3ccccc3)cc2-c2ccnc3ccccc23)n1 [A-83-01]
IC50 [1]: 100 nM

COc1cc2ncnc(Nc3cccc(Cl)c3)c2cc1OC [AG1478]
IC50 [1]: 560 nM

Cc1ccc(C(=O)Nc2cccc(C(F)(F)F)c2)cc1-c1ccc2nc(NCCN3CCOCC3)ncc2c1 [AMG-47a]
IC50 [1]: 3 nM | IC50 [3]: 145 nM

O=C(Nc1c[nH]nc1-c1nc2cc(CN3CCOCC3)ccc2[nH]1)NC1CC1 [AT9283]
IC50 [4]: > 100 nM | IC50 [1]: > 100 nM | IC50 [2]: > 100 nM | IC50 [3]: > 100 nM

Cc1ccc(-n2nc(C(C)(C)C)cc2NC(=O)Nc2ccc(OCCN3CCOCC3)c3ccccc23)cc1 [BIRB 796, 1-[5-tert-butyl-2-(4-methylphenyl)pyrazol-3-yl]-3-[4-(2-morpholin-4-ylethoxy)naphthalen-1-yl]urea]
P. falciparum growth in vitro (parasitemia) [5]: Neither inhibitor significantly altered parasite growth; also recorded: no activity | immune gene expression levels in midgut [6]: significantly different from controls

CC1=C2N=C(C=C3NC(=Cc4[nH]c(c(CCC(=O)O)c4CC(=O)O)Cc4[nH]c1c(CC(=O)O)c4CCC(=O)O)C(CCC(=O)O)C3(C)CC(=O)O)C(CCC(=O)O)C2(C)CC(=O)O (stereo not drawn) [BX517]
IC50 [1]: > 900 nM | IC50 [2]: > 900 nM

CCNc1nnc2ccc(-c3ocnc3-c3ccc(F)cc3)cn12 [CHEMBL213451]
IC50 [1]: 7.6 nM

CC(C)c1nnc2ccc(-c3ocnc3-c3ccc(F)cc3Cl)cn12 [CHEMBL215652]
IC50 [1]: 2.5 nM

Cc1ccc(C(=O)Nc2ccon2)cc1Nc1ncnc(NC2CCCC2)c1C#N [CHEMBL383172]
Ki [1]: 1.6 nM

Cc1ccc(-n2nc(C(C)(C)C)cc2NC(=O)Nc2cccc3ccccc23)cc1 [CHEMBL420047]
Kd [1]: 1 nM

Cc1ccc(NC(=O)c2cccc(N3CCCCC3)c2)cc1-c1ccc(C(=O)NCC2CC2)cc1 [CHEMBL1964275]
Kd [1]: < 10 nM

COc1cc(N2CCOCC2)ccc1Nc1ncc(F)c(Nc2ccccc2NS(C)(=O)=O)n1 [CZC-25146]
IC50 [2]: < 600 nM | IC50 [3]: < 600 nM

O=C(O)c1ccc(-c2c[nH]c3ncc(-c4ccccc4)cc23)cc1C1CCCC1 [GSK650394A]
IC50 [3]: > 600 nM

Cn1c2ccccc2c2c3c(c4c5ccccc5n(CCC#N)c4c21)CNC3=O [Go6976, 5,6,7,13-Tetrahydro-13-methyl-5-oxo-12H-indolo[2,3-a]pyrrolo[3,4-c]carbazole-12-propa-nenitrile]
IC50 [3]: > 300 nM

COc1ccc(N(C(=O)Nc2c(C)cccc2C)c2cc(Nc3ccc(N4CCN(C)CC4)cc3)ncn2)c(OC)c1 [HG-9-91-01]
IC50 [1]: < 600 nM | IC50 [3]: < 800 nM

CCS(=O)(=O)Nc1ccc2c(c1)/C(=C(/Nc1ccc(CN3CCCCC3)cc1)c1ccccc1)C(=O)N2 [Hesperadin]
Kd [2]: < 10 nM | Kd [3]: < 10 nM

CCCCCCOC(=O)[C@]1(O)C[C@@H]2O[C@@]1(C)n1c3ccccc3c3c4c(c5c6ccccc6n2c5c31)C(=O)NC4 [KT5720]
IC50 [2]: < 800 nM

BrCBr [Kinome_3024]
Ki [2]: 3 nM

CCCC(=O)NC1=NC2C(N=CN2C2OC3OP(=O)(O)OC3C2OC(=O)CCC)C(=O)N1 (stereo not drawn) [Kinome_3027]
Ki [2]: 1 nM | Ki [3]: 18 nM

CCCC(=O)NC1=NC2C(N=CN2C2OC3OP(=O)(O)OC3C2OC(=O)CCC)C(=O)N1 (stereo not drawn) [Kinome_3028]
Ki [2]: 3 nM

NC(N)=NC(=O)Cc1c(Cl)cccc1Cl [Kinome_3519]
Ki [1]: 0.2 nM

c1ccc(-c2[nH]ncc2-c2ccnc3ccccc23)nc1 [LY364947]
IC50 [1]: 740 nM

O=C(O)[C@]1(Cc2cccc(Nc3nccs3)n2)CC[C@@H](Oc2cccc(Cl)c2F)CC1 [MK5108]
IC50 [4]: > 1000 nM | IC50 [2]: > 1000 nM | IC50 [3]: > 100 nM

CCN(CC)C(=O)c1ccc(Nc2nc(OCC3CCCCC3)c3[nH]cnc3n2)cc1 [NU6140]
IC50 [2]: 500 nM

O=C1c2ccccc2-c2nc3nnnn3nc21 [PDK1/Akt/Flt Inhibitor]
IC50 [3]: 500 nM

CC(C)(C)n1nc(Cc2cccc3ccccc23)c2c(N)ncnc21 [PP1 Analog II; 1NM-PP1]
IC50 [2]: 140 nM

CNC(=O)c1cc(Oc2ccc(NC(=O)Nc3ccc(Cl)c(C(F)(F)F)c3)c(F)c2)ccn1 [Regorafenib]
IC50 [1]: < 100 nM

CN(C)C[C@@H]1CCn2cc(c3ccccc32)C2=C(C(=O)NC2=O)c2cn(c3ccccc23)CCO1 [Ruboxistaurin]
IC50 [3]: > 900 nM

C[S+]([O-])c1ccc(-c2nc(-c3ccc(F)cc3)c(-c3ccncc3)[nH]2)cc1 (stereo not drawn) [SB203580, 4-[4-(4-fluorophenyl)-2-(4-methylsulfinylphenyl)-1H-imidazol-5-yl]pyridine]
p-MK2 levels [7]: undetectable | P. falciparum growth in vitro (parasitemia) [5]: Neither inhibitor significantly altered parasite growth; also recorded: no such effects | infection prevalence ([8]; 10 days): significantly reduced | P. falciparum oocysts/midgut ([8]; oocysts counted at 10 days): significantly reduced | p38 MAPK activity in the mosquito in vivo [9]: significantly reduced

Cc1cc(F)ccc1-c1nc(NC(CO)CO)nc2c1ccc(=O)n2-c1c(F)cccc1F [SB681323]
IC50 [1]: < 100 nM

CN1CCC(CNc2ccc3ncc(-c4cccc(OC(F)(F)F)c4)n3n2)CC1 [SGI-1776]
IC50 [3]: > 1000 nM

Oc1c2ccccc2c2c3c(cccc13)N=N2 [SP600125]
impact on lifespan [10]: no negative impact | impact on lifespan [11]: no negative impact

Oc1cccc2cccnc12 [SPDD01923]
IC50 [1]: 0.11 nM

O=C(O)c1ccc2c(c1)nc(Nc1cccc(Cl)c1)c1ccncc12 [Silmitasertib]
IC50 [2]: > 1000 nM | IC50 [3]: > 1000 nM

O=C1NCc2c1c1c3ccccc3[nH]c1c1[nH]c3ccccc3c21 [Staurosporine aglycone]
IC50 [2]: < 100 nM | IC50 [3]: < 100 nM

CN(C)c1ccc(C(=N)c2ccc(N(C)C)cc2)cc1 [SureCN3936664]
IC50 [1]: 5 nM

CCCCCCCCCCCCCC(=NO)c1cc(OC)ccc1O [SureCN4219451]
IC50 [1]: 1.8 nM

CCC(C)C(C(=O)O)N1C(=O)C(=Cc2c(F)cccc2Cl)SC1=S (stereo not drawn) [SureCN4762364]
IC50 [1]: 3.2 nM

O=C(COC(=O)C1COc2ccccc2O1)Nc1cc(C(F)(F)F)ccc1N1CCOCC1 (stereo not drawn) [SureCN4875304]
IC50 [1]: 540 nM

COc1ccc2c(Oc3ccc(NC(=O)c4c(C)n(CC(C)(C)O)n(-c5ccccc5)c4=O)nc3)ccnc2c1 [SureCN5495613]
IC50 [1]: 9 nM

CCOC(=O)Cn1nc(C(F)F)cc1C [SureCN7018367]
Kd [2]: < 1250 nM | Kd [3]: < 10 nM

CN1CC=C(c2c[nH]c3ccc(-c4cccs4)cc23)CC1 [SureCN10063060]
Ki [2]: > 1000 nM

COc1ccc(-c2cc3nccn3c(Nc3ncccc3C(N)=O)n2)cc1OC [Syk Inhibitor IV]
IC50 [3]: < 400 nM

CNC(=O)[C@@]1(N)C[C@H]2O[C@]1(C)n1c3ccccc3c3c4c(c5c6ccccc6n2c5c31)C(=O)NC4 [TTT-3002]
IC50 [2]: < 40 nM | IC50 [3]: < 60 nM

C=CC(=O)Nc1cccc(Oc2nc(Nc3ccc(N4CCN(C)CC4)cc3)ncc2Cl)c1 [WZ3146]
Kd [4]: > 1000 nM | Kd [2]: > 1000 nM | Kd [3]: > 1000 nM

C=CC(=O)Nc1cccc(Oc2nc(Nc3ccc(N4CCN(C)CC4)cc3OC)ncc2Cl)c1 [WZ4002]
Kd [4]: > 1000 nM | Kd [2]: > 1000 nM | Kd [3]: > 1000 nM

Cc1ccc(NC(=O)c2cccc(N(C)C)c2)cc1NC(=O)c1ccc(O)cc1 [ZM336372]
IC50 [1]: 180 nM
